Target: T1, human FAAH (Homo sapiens, UniProt O00519)
T1 construct: host or cells: COS-7 cells, transient transfection; 13,000 g membrane fraction solubilised in 1% Triton X-100
T1 sequence (O00519 1-579): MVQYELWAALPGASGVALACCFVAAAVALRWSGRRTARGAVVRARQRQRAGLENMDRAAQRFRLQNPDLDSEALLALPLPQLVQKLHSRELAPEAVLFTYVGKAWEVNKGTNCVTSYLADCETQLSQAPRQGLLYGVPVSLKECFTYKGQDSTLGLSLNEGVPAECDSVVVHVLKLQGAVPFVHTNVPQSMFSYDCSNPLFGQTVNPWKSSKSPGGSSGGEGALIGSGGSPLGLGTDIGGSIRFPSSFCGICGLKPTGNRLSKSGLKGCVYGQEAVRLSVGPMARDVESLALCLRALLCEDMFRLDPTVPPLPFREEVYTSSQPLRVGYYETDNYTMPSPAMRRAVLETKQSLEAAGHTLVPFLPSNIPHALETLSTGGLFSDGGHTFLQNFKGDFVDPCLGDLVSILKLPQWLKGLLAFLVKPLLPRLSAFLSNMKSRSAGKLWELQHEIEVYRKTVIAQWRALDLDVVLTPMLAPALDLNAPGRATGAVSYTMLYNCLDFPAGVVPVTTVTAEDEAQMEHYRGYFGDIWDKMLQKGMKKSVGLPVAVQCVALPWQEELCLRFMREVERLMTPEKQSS
Test: Human FAAH biochemical inhibition assay (AMC arachidonoyl amide fluorescence)
Details: not given
Description: The resulting solution is added into one dish of 30-40% confluent COS-7 cells in a drop-wise manner. The COS-7 cell dish is subsequently incubated for 48 hours. The cells are then harvested.
Harvest procedure: Media was aspirated from the dishes and the cells rinsed with 10 mL PBS. The PBS was removed and 3 mLs of PBS added to the dish. The dish was scraped to resuspend the cells, and the subsequent cell suspension collected into a 15 ml conical tube. The cells were pelleted by centrifugation at 1200 rpm for 5 minutes in a bench top centrifuge. PBS was removed and the cell pellet snap frozen in liquid nitrogen, store at −80 C.
The pellets were dounce homogenized and then sonicated to produce cell extract. The cell extract was subsequently centrifuged at 1000 g to remove cellular debris. The pellet was discarded and the supernatant centrifuged at 13,000 g for 20 minutes. The pellet contained membrane bound FAAH. The supernatant was discarded and the pellet resolubilized.
(2) Re-solubilization: The fraction of interest, (13,000 g, membrane fraction) was re-suspended in re-suspension buffer (20 mM Hepes pH 7.8, 10% v/v Glycerol, 1 mM EDTA, 1% Triton X-100) (2.3 mL re-suspension and the sample incubated on ice for 1 hour and then centrifuged to at 13,000 g remove any particulate matter. The supernatant containing solubilized human FAAH was aliquoted and snap frozen in liquid nitrogen and stored at −80° C. until use.
FAAH reaction buffer: 50 mM Hepes (pH 7.5), 1 mM EDTA, 0.2% Triton X-100.
Human FAAH assay; Experimental Protocol: A 0.1 mg/mL Human FAAH solution is made up in FAAH reaction buffer, and 24 ul pipetted into a 384 well plate. To this is added 1 uL of a 3 fold serially diluted inhibitor from a DMSO stock solution. The FAAH solution and inhibitor are incubated for 30 minutes at room temperature. The FAAH reaction is initiated by the addition of 25 uL of 40 uM AMC Arachidonoyl Amide in FAAH reaction buffer, yielding a final reaction human FAAH preparation concentration of 0.05 mg/ml and AMC-Arachidonoyl substrate concentration of 20 uM, reaction volume 50 uL. The reaction is allowed to proceed for 4 hours at room temperature. […] The microtiter plate in read in the envision plate reader.

SMILES	Ki
OB(O)c1ccc(Cl)cc1 [Compound I-82]	0.01 to 1 µM

Same assay, conditions: Table 1, human FAAH (no asterisk); read-out: Activity (Ki)

SMILES	Ki
OB(O)c1cc(I)ccc1F [Compound I-1]	0.01 to 1 µM
OB(O)c1cccc(I)c1 [Compound I-2]	0.01 to 0.1 µM
CC1(C)OB(c2cccc3cc[nH]c23)OC1(C)C [Compound I-3]	> 1 µM
OB(O)c1cccc2c1oc1ccccc12 [Compound I-4]	0.01 to 1 µM
COc1cccc(COc2c(Br)cccc2B(O)O)c1 [Compound I-5]	> 1 µM
CCOc1ccc(Br)cc1B(O)O [Compound I-6]	> 1 µM
CC(C)Oc1c(Br)cc(F)cc1B(O)O [Compound I-7]	> 1 µM
CCCOc1c(Br)cc(F)cc1B(O)O [Compound I-8]	> 1 µM
CCOc1c(Br)cc(F)cc1B(O)O [Compound I-9]	0.01 to 1 µM
COc1c(Br)cc(F)cc1B(O)O [Compound I-10]	0.01 to 0.1 µM
OB(O)C1=CCCCCC1 [Compound I-11]	> 1 µM
COc1ccc(Br)cc1B(O)O [Compound I-12]	> 1 µM
OB(O)c1cc(F)cc(C(F)(F)F)c1 [Compound I-13]	0.01 to 0.1 µM
Cc1cc(F)cc(B(O)O)c1 [Compound I-14]	0.01 to 1 µM
COc1cc(F)cc(B(O)O)c1 [Compound I-15]	0.01 to 1 µM
CCOc1cc(F)cc(B(O)O)c1 [Compound I-16]	0.01 to 1 µM
COc1cc(Br)cc(B(O)O)c1 [Compound I-17]	> 1 µM
OB(O)c1cc(F)cc(Cl)c1 [Compound I-18]	0.01 to 0.1 µM
CCOc1cc(B(O)O)cc(C(F)(F)F)c1 [Compound I-19]	> 1 µM
Cc1cc(Cl)cc(B(O)O)c1 [Compound I-20]	0.01 to 1 µM
COc1cc(B(O)O)cc(C(F)(F)F)c1 [Compound I-21]	> 1 µM
OB(O)c1cc(Cl)cc(Cl)c1 [Compound I-22]	0.01 to 1 µM
OB(O)c1cc(Br)cc(Br)c1 [Compound I-23]	0.01 to 1 µM
OB(O)c1cc(F)cc(F)c1 [Compound I-24]	0.01 to 1 µM
Cc1cc(Br)cc(B(O)O)c1 [Compound I-25]	0.01 to 1 µM

SMILES	Ki
OB(O)c1cc(F)cc(Br)c1 [Compound I-26]	0.01 to 0.1 µM
OB(O)c1cc(OC(F)(F)F)ccc1F [Compound I-27]	0.01 to 0.1 µM
OB(O)c1ccc(F)c(OCC(F)(F)F)c1 [Compound I-28]	0.01 to 1 µM
OB(O)c1cccc(Br)c1 [Compound I-29]	0.01 to 0.1 µM
CCC[C@H]1CC[C@H](c2ccc(B(O)O)cc2)CC1 [Compound I-30]	< 0.01 µM
OB(O)c1ccc(-c2cccs2)cc1 [Compound I-31]	0.01 to 0.1 µM
COc1ccc(B(O)O)cc1Cl [Compound I-32]	0.01 to 1 µM
Cc1ccc(B(O)O)cc1Cl [Compound I-33]	0.01 to 1 µM
OB(O)c1ccc(Br)c(F)c1F [Compound I-34]	0.01 to 0.1 µM
CC(C)Oc1ccc(B(O)O)cc1Cl [Compound I-35]	0.01 to 0.1 µM
CCCCOc1ccc(B(O)O)cc1F [Compound I-36]	< 0.01 µM
OB(O)c1ccc(Cl)s1 [Compound I-37]	0.01 to 1 µM
CCCCOc1ccc(B(O)O)cc1Cl [Compound I-38]	< 0.01 µM
OB(O)c1ccccc1Cl [Compound I-39]	0.01 to 1 µM
OB(O)c1cccs1 [Compound I-40]	> 1 µM
OB(O)c1cccc2cnccc12 [Compound I-41]	> 1 µM
CC(=O)c1cccc(B(O)O)c1 [Compound I-42]	0.01 to 1 µM
OB(O)c1ccc(C2CCCC2)cc1 [Compound I-43]	< 0.01 µM
OB(O)c1c(F)c(F)c(Br)c(F)c1F [Compound I-44]	> 1 µM
OB(O)c1cccc(OC(F)(F)F)c1 [Compound I-45]	0.01 to 1 µM
N#Cc1ccc(B(O)O)cc1 [Compound I-46]	0.01 to 1 µM
CS(=O)(=O)c1cccc(B(O)O)c1 [Compound I-47]	> 1 µM
OB(O)c1ccccc1OC(F)(F)F [Compound I-48]	0.01 to 1 µM
CCCCCCCc1ccc(B(O)O)cc1 [Compound I-49]	< 0.01 µM
OB(O)c1cccc(C(F)(F)F)c1 [Compound I-50]	0.01 to 0.1 µM

SMILES	Ki
OB(O)c1ccsc1Cl [Compound I-51]	0.01 to 1 µM
CCOc1ccc2cc(B(O)O)ccc2c1 [Compound I-52]	< 0.01 µM
CCCCOc1c(F)c(F)c(B(O)O)c(F)c1F [Compound I-53]	> 1 µM
CCCOc1c(F)c(F)c(B(O)O)c(F)c1F [Compound I-54]	> 1 µM
OB(O)c1c(F)c(F)cc(F)c1F [Compound I-55]	> 1 µM
OB(O)c1ccc2cc(OCc3ccccc3)ccc2c1 [Compound I-56]	< 0.01 µM
CCc1ccc(B(O)O)cc1 [Compound I-57]	0.01 to 1 µM
CCCc1ccc(B(O)O)cc1 [Compound I-58]	0.01 to 0.1 µM
CCOc1ccc(B(O)O)cc1 [Compound I-59]	0.01 to 1 µM
CCCOc1ccc(B(O)O)cc1 [Compound I-60]	0.01 to 0.1 µM
CCCCOc1ccc(B(O)O)cc1 [Compound I-61]	0.01 to 0.1 µM
OB(O)c1cncc2ccccc12 [Compound I-62]	> 1 µM
OB(O)c1cc(C(F)(F)F)cc(C(F)(F)F)c1 [Compound I-63]	> 1 µM
OB(O)c1ccoc1 [Compound I-64]	> 1 µM
OB(O)c1cnc2ccccc2c1 [Compound I-65]	> 1 µM
O=[N+]([O-])c1ccccc1B(O)O [Compound I-66]	> 1 µM
CN(C)c1ccc(B(O)O)cc1 [Compound I-68]	> 1 µM
OB(O)c1ccc(Br)cc1 [Compound I-69]	0.01 to 1 µM
OB(O)c1ccc(I)cc1 [Compound I-70]	0.01 to 0.1 µM
OB(O)c1cccc(F)c1 [Compound I-71]	> 1 µM
OB(O)c1ccc(F)cc1 [Compound I-72]	> 1 µM
OB(O)c1cccc(Cl)c1 [Compound I-73]	0.01 to 1 µM
OB(O)c1ccc(O)cc1 [Compound I-74]	> 1 µM
OB(O)c1ccc(Cl)c(Cl)c1 [Compound I-75]	0.01 to 0.1 µM
COc1cccc(B(O)O)c1 [Compound I-76]	> 1 µM

SMILES	Ki
COc1ccc(B(O)O)cc1OC [Compound I-77]	> 1 µM
COc1ccccc1B(O)O [Compound I-78]	> 1 µM
Cc1cccc(B(O)O)c1 [Compound I-79]	> 1 µM
Cc1ccc(B(O)O)cc1C [Compound I-80]	0.01 to 1 µM
Cc1ccccc1B(O)O [Compound I-81]	> 1 µM
O=[N+]([O-])c1ccc(B(O)O)cc1 [Compound I-83]	0.01 to 1 µM
CS(=O)(=O)c1ccc(B(O)O)cc1 [Compound I-84]	0.01 to 1 µM
CC(=O)c1ccc(B(O)O)cc1 [Compound I-85]	0.01 to 1 µM
OB(O)c1ccc(C(F)(F)F)cc1 [Compound I-86]	0.01 to 0.1 µM
COc1ccc(B(O)O)cc1 [Compound I-87]	> 1 µM
OB(O)c1ccc2c(c1)OCO2 [Compound I-88]	> 1 µM
OB(O)c1cncnc1 [Compound I-89]	> 1 µM
OB(O)c1ccncc1 [Compound I-90]	> 1 µM
OB(O)c1cccnc1 [Compound I-91]	> 1 µM
OB(O)c1ccsc1 [Compound I-92]	> 1 µM
OB(O)c1ccco1 [Compound I-93]	> 1 µM
CC(C)(C)c1ccc(B(O)O)cc1 [Compound I-94]	0.01 to 0.1 µM
CC(C)c1ccc(B(O)O)cc1 [Compound I-95]	0.01 to 0.1 µM
Cc1ccc(B(O)O)cc1 [Compound I-96]	> 1 µM
CC(C)Cc1ccc(B(O)O)cc1 [Compound I-97]	0.01 to 0.1 µM
OB(O)c1ccc2c(c1)OCCO2 [Compound I-98]	0.01 to 1 µM
OB1OCCc2ccccc21 [Compound I-99]	> 1 µM

— US8329675B2, “Inhibitors of fatty acid amide hydrolase” (Infinity Pharmaceuticals, Inc., priority 2006, dated 2012)
